Read-outs that look alike come from different tables or passages of the source.
Tests used:
[1] = test system: A549; test: MTS cell viability assay; type: cell-based; conditions: Homo sapiens, A549 non small cell lung, 72 hours, read-out: MTS NCI A549 GI50
Experimental: Two human cancer cell lines were assayed (see, Table 1). Cells were maintained at 37° C. and 5% CO2 in DMEM media (4.5 g/L glucose) supplemented with 10% heat-inactivated FBS, 10 mM L-glutamine, and 10 mM Hepes pH 7.5. Briefly, cells were seeded in 96-well plates as set forth in Table 1 and incubated for 16-24 hours. Candidate compounds were serially diluted in DMSO, further diluted in cell culture media, and then added to cells (final DMSO concentration of 0.33%). Cells were incubated in the presence of candidate compound for 72 hours. […] The Compound Numbers in Table 2 correspond to the numbers listed parenthetically in the Example titles.

[2] = biological target: T1, HsEg5 (Homo sapiens, UniProt P52732); test: Fluorescence detection of HsEg5 ATPase activity (ADP Quest, automated); type: biochemical
T1 sequence (P52732 18-359 limits assumed): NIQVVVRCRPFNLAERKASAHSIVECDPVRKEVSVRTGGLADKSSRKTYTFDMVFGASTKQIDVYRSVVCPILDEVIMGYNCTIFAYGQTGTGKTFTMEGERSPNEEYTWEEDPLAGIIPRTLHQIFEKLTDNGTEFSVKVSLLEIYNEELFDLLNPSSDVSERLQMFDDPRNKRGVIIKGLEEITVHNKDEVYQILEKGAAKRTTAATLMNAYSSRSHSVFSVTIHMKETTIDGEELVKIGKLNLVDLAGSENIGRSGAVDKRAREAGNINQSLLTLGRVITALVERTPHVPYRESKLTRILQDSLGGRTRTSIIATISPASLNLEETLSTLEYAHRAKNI
Experimental: Purified HsEg5 motor fragment was activated by mixture with preformed MT polymer (Cytoskeleton, Denver, Colo.) at room temperature for 20 minutes. MT activated ATPase activity was measured using ADP Quest (DiscoverX, Fremont, Calif.) in which a coupled-enzyme assay can translate accumulation of ADP into detectable resorufin signal (FIG. 1A). Fluorescence was measured at λEx=535 nm and λEm=590 nm on a Wallac Victor 2 plate reader (Perkin-Elmer Life Sciences, Boston, Mass.). Reagent A and B from ADP Quest kit were aliquoted and frozen in −20° C. before use. A standard curve was determined using the provided ADP reagent in the reaction buffer that consisted of 50 mM Pipes (pH7.0), 5.0 mM MgCl2, 20 μM paclitaxel and […]. The same buffer was used for Km determination with HsEg5 concentration of 10 nM.
For inhibitor screening, 4 μL of compounds were incubated with 10 μL of MT-activated HsEg5 such that the final concentrations for compound range from 100 μM to 5 nM (1 to 3 serial dilutions, final concentration) and final concentration for HsEg5 is 10 nM. The mixture was incubated at room temperature for 10 minutes with mild shaking. The screening assay contained 0.3% DMSO in all reaction wells. We used wells containing only DMSO as negative controls and wells without ATP as background. Addition of 6 μL ATP (final concentration of 20 μM) initiated the ATP hydrolysis reaction. The 20 μL-reaction was allowed to proceed at room temperature for 10 minutes before addition of 10 μL of reagent A and 20 μL of reagent B. After 20-minute development at room temperature, the fluorescence was measured and data analysis was performed using GraphPad Prism version 3.0 (GraphPad Software, San Diego, Calif.)
For the purpose of high-throughput screening, we automated the fluorescence assay using a Sciclone ALH3000 (Caliper Life Sciences, Hopkinton, Mass.) and Multidrop 384 (Thermo Electron Corp, Waltham, Mass.). First, compound dilution plates for screening (at 10 μM or 1 μM) and ICso determination (10 data points from 100 μM to 5 nM) were made in Corning polypropylene V-bottom 96-well plates. In both cases, the 1st and 7th column contained background (No ATP addition) and negative control (DMSO only). For screening compounds at 10 μM or 1 μM, […] of each compound at 50 μM or 5 μM were used in a 20 μL assay reaction. For IC50 determination, the mother compound plate contained 24 μL of tested compound at stock concentration of 30 mM. 6 μL of each test compound in 30 mM was added to each well in the column 2 and followed by 1:3 serial dilutions in DMSO with the Sciclone ALH3000. 234 μL of assay buffer was then added using a Multidrop 384. Then 4 μL of diluted compounds was used in 20 μL-reaction. The final concentration was a 1:300 dilution of the original stock. Second, a reagent source plate was prepared with three rows designated to MT-activated HsEg5, Reagent A and Reagent B respectively. MTs were diluted with assay buffer and polymerized at room temperature for 10 minutes. Just before use, HsEg5 protein was thawed on ice and activated by addition of MT polymers at room temperature for 20 minutes. HsEg5/MT was then added to Row A of the reagent source plate. The final assay concentration was 10 nM HsEg5 and 500 nM MTs. Reagent A and B were stored at −20° C. and thawed at room temperature followed by transferring to rows B & C of the reagent source plate. Third, ATP substrate plate was prepared by transferring 80 μM ATP solution to each well of a V-shape 96-well plate except the wells in the first row where assay buffer was added instead to have no-ATP blanks. The final concentration for ATP in the assay was 20 μM.
The assay was programmed on Sciclone ALH3000 with the following procedures: 1) Addition of 4 μL compounds to the assay plate, followed by addition of 10 μL of MT-activated HsEg5. […]

[3] = test system: NCI-H460; test: MTS cell viability assay; type: cell-based, human; conditions: Homo sapiens, NCI-H460, 72 h
Experimental: Cell viability was determined by measuring the activity of dehydrogenase enzymes in metabolically active cells using a tetrazolium compound, MTS. The assay was performed as described in Promega Technical Bulletin No. 169 (CellTiter 96 Aqueous Non-Radioactive Cell Proliferation Assay). Two human cancer cell lines were assayed (see, Table 1). Cells were maintained at 37° C. and 5% CO2 in DMEM media (4.5 g/L glucose) supplemented with 10% heat-inactivated FBS, 10 mM L-glutamine, and 10 mM Hepes pH 7.5. Briefly, cells were seeded in 96-well plates as set forth in Table 1 and incubated for 16-24 hours. Candidate compounds were serially diluted in DMSO, further diluted in cell culture media, and then added to cells (final DMSO concentration of 0.33%). Cells were incubated in the presence of candidate compound for 72 hours. MTS stock solution (MTS 2 gm/L, PMS […] in PBS) was added to the cells (final concentration MTS […] and PMS 7.67 mg/L) and incubated for 4 hours. SDS was added to a final concentration of 1.4% and absorbance at 490 nm was measured within two hours using a plate reader. […] GI50 values were given in Table 2 for the compounds listed. The Compound Numbers in Table 2 correspond to the numbers listed parenthetically in the Example titles. Where multiple measurements were made by different technicians, both values are given.
Cell viability was determined for N-(3-amino-propyl)-3-chloro-N—[(R)-1-(7-chloro-4-oxo-3-phenylamino-3,4-dihydro-quinazolin-2-yl)-but-3-ynyl]-2-fluoro-benzamide (compound I of Table 2). The cell viability assay of Example 105 was used. GI50 was determined using a variety of cell lines. Cells were plated at 100-5000 cells per well. At least 2 replicates were performed. Where multiple measurements were made by different technicians, both values are given.

[4] = read-out: MTS NCI H460 GI50, NCI-H460 non small cell lung, 72 hours

SMILES | GI50 [1] | IC50 [2] | GI50 ([3]; read-out: MTS NCI H460 GI50) | GI50 ([1]; A549, 72 h) | GI50 [3, 4]
CCC(c1nc2cc(Cl)ccc2c(=O)n1Nc1ccccc1)N(CCCN)C(=O)c1ccc(F)c(Cl)c1F (stereo not drawn) [Compound 20, N-(3-Aminopropyl)-N-[1-(3-anilino-7-chloro-4-oxo-3,4-dihydroquinazolin-2-yl)propyl]-3-chloro-2,4-difluorobenzamide] | 1.8 µM | 0.844 µM | 1 µM | – | –
CCC(c1nc2cc(Cl)ccc2c(=O)n1Nc1ccccc1)N(CCCN)C(=O)c1ccc(C)c(F)c1F (stereo not drawn) [Compound 21, N-(3-Aminopropyl)-N-[1-(3-anilino-7-chloro-4-oxo-3,4-dihydroquinazolin-2-yl)propyl]-2,3-difluoro-4-methylbenzamide] | – | 1.25 µM | – | 1.93 µM | 1.08 µM
CCC(c1nc2cc(Cl)ccc2c(=O)n1Nc1ccccc1)N(CCCN)C(=O)c1ccc2ccccc2n1 (stereo not drawn) [Compound 22, N-(3-Aminopropyl)-N-[1-(3-anilino-7-chloro-4-oxo-3,4-dihydroquinazolin-2-yl)propyl]quinoline-2-carboxamide] | 2.08 µM | 1.61 µM | 1.17 µM | – | –
CCC(c1nc2cc(Cl)ccc2c(=O)n1Nc1ccccc1)N(CCCN)C(=O)c1ccc(-n2cccn2)cc1 (stereo not drawn) [Compound 23, N-(3-Aminopropyl)-N-[1-(3-anilino-7-chloro-4-oxo-3,4-dihydroquinazolin-2-yl)propyl]-4-(1H-pyrazol-1-yl)benzamide] | – | 1.02 µM | – | 2.49 µM | 1.12 µM
CCC(c1nc2cc(Cl)ccc2c(=O)n1Nc1cccc(F)c1)N(CCCN)C(=O)c1ccc(C)cc1 (stereo not drawn) [Compound 24, N-(3-Aminopropyl)-N-(1-{7-chloro-3-[(3-fluorophenyl)amino]-4-oxo-3,4-dihydroquinazolin-2-yl}propyl)-4-methylbenzamide] | 1.79 µM | 1.05 µM | 1.09 µM | – | –
CCC(c1nc2cc(Cl)ccc2c(=O)n1Nc1ccccc1F)N(CCCN)C(=O)c1ccc(C)cc1 (stereo not drawn) [Compound 25, N-(3-Aminopropyl)-N-(1-{7-chloro-3-[(2-fluorophenyl)amino]-4-oxo-3,4-dihydroquinazolin-2-yl}propyl)-4-methylbenzamide] | 1.52 µM | 1.43 µM | 0.959 µM | – | –
CCC(c1nc2cc(Cl)ccc2c(=O)n1Nc1cc(F)ccc1F)N(CCCN)C(=O)c1ccc(C)cc1 (stereo not drawn) [Compound 26, N-(3-Aminopropyl)-N-(1-{7-chloro-3-[(2,5-difluorophenyl)amino]-4-oxo-3,4-dihydroquinazolin-2-yl}propyl)-4-methylbenzamide] | 1.25 µM | 0.944 µM | 0.889 µM | – | –
CCC(c1nc2ccc(Cl)cc2c(=O)n1Nc1ccccc1)N(CCCN)C(=O)c1ccc(C)cc1 (stereo not drawn) [Compound 27, N-(3-Aminopropyl)-N-[1-(3-anilino-6-chloro-4-oxo-3,4-dihydroquinazolin-2-yl)propyl]-4-methylbenzamide] | 2.22 µM | 1.28 µM | 1.08 µM | – | –
CCC(c1nc2ccc(C)cc2c(=O)n1Nc1ccccc1)N(CCCN)C(=O)c1ccc(C)cc1 (stereo not drawn) [Compound 28, N-(3-Aminopropyl)-N-[1-(3-anilino-6-methyl-4-oxo-3,4-dihydroquinazolin-2-yl)propyl]-4-methylbenzamide] | 2.5 µM | 1.59 µM | 1.35 µM | – | –
CCC(c1nc2cc(Cl)ccc2c(=O)n1Oc1ccccc1)N(CCCN)C(=O)c1ccc(C)cc1 (stereo not drawn) [Compound 29, N-(3-Aminopropyl)-N-[1-(7-chloro-4-oxo-3-phenoxy-3,4-dihydroquinazolin-2-yl)propyl]-4-methylbenzamide] | – | 2.17 µM | – | 3.31 µM | 2.09 µM
CCC(c1nc2cc(Cl)ccc2c(=O)n1OCc1ccccc1)N(CCCN)C(=O)c1ccc(C)cc1 (stereo not drawn) [Compound 32, N-(3-Aminopropyl)-N-{1-[3-(benzyloxy)-7-chloro-4-oxo-3,4-dihydroquinazolin-2-yl]propyl}-4-methylbenzamide] | 1.87 µM | 1.39 µM | 0.956 µM | – | –
CC[C@H](c1nc2cc(Cl)ccc2c(=O)n1Nc1ccccc1)N(CCCN)S(=O)(=O)c1ccsc1 [Compound 34, N-(3-Aminopropyl)-N-[(1R)-1-(3-anilino-7-chloro-4-oxo-3,4-dihydroquinazolin-2-yl)propyl]thiophene-3-sulfonamide] | 6.36 µM | 1.65 µM | 5.47 µM | – | –
CC(C)CC(c1nc2cc(Cl)ccc2c(=O)n1Nc1ccccc1)N(CCCN)C(=O)c1ccc(F)c(F)c1 (stereo not drawn) [Compound 35, N-(3-Aminopropyl)-N-[1-(3-anilino-7-chloro-4-oxo-3,4-dihydroquinazolin-2-yl)-3-methylbutyl]-3,4-difluorobenzamide] | 4.52 µM | 1.96 µM | 6.15 µM | – | –
CC(C)CC(c1nc2cc(Cl)ccc2c(=O)n1Nc1ccccc1)N(CCCN)C(=O)c1cc(Cl)cc(Cl)c1 (stereo not drawn) [Compound 36, N-(3-Aminopropyl)-N-[1-(3-anilino-7-chloro-4-oxo-3,4-dihydroquinazolin-2-yl)-3-methylbutyl]-3,5-dichlorobenzamide] | 4.37 µM | 1.86 µM | 3.77 µM | – | –

Reference: patent US20110217300A1, “Quinazolinone Compounds and Methods of Use Thereof” (priority 2007, published 2011)
